Legend:
hepatitis C = conditions: human, in vivo; cited from earlier work
[1] = assay type: physicochemical; conditions: pH 7.4
[2] = dog, in vivo; cited from earlier work

SMILES | biochemical and virological markers (hepatitis C) | amino group protonated at physiological pH [1] | increase in blood pressure [2] [%]
NC12CC3CC(CC(C3)C1)C2 [amantadine, 1-adamantanamine] | improved | over 90% | 
CNC[C@H](O)c1cccc(O)c1 [phenylephrine] |  |  | 20
